From paper PMC11822212, “High-throughput screening identifies Aurora kinase B as a critical therapeutic target for Merkel cell carcinoma” (Nature Communications, 2025)
Several values for one entry are separate records, joined by “and”; a condition that tells them apart may be missing. Equal entries are not always repeated. Structures can show the parent of a compound that is named as a salt. Where two headings read alike, the source gives them in different places.

What was measured:
MCC13 cells (VN-MCC) = assay: qHTS cell viability (CellTiter-Glo, 72 h; primary and follow-up small molecule screen); assay type: cell-based, human
MCC26 cells (VN-MCC) = assay: as above; assay type: cell-based, human
UISO cells (VN-MCC) = assay: as above; assay type: cell-based, human
WAGA cells (VP-MCC) = assay: as above; assay type: cell-based, human
MKL-1 cells (VP-MCC) = assay: as above; assay type: cell-based, human
MKL-2 cells (VP-MCC) = assay: as above; assay type: cell-based, human
HACAT cells = assay: qHTS cell viability (CellTiter-Glo, 72 h; primary screen), control cell line; assay type: cell-based, human
HEK293T cells = assay: as above; assay type: cell-based, human
NIH-3T3 cells = assay: as above; assay type: cell-based, mouse
CRL-7250 cells = assay: as above; assay type: cell-based
[1] = system: MCC cell lines (WAGA, MKL-1, MKL-2, MCC13, MCC26, UISO); assay: qHTS cell viability, all six MCC cell lines as a group (mean AUC, MCC.avg); assay type: cell-based, human
[2] = system: VP-MCC cell lines (WAGA, MKL-1, MKL-2); assay: qHTS cell viability, VP-MCC cell lines as a group (mean AUC, VP.MCC.avg); assay type: cell-based, human
[3] = system: VN-MCC cell lines (MCC13, MCC26, UISO); assay: qHTS cell viability, VN-MCC cell lines as a group (mean AUC, VN.MCC.avg); assay type: cell-based, human
[4] = system: control cell lines (HACAT, HEK293T, CRL-7250, NIH-3T3); assay: qHTS cell viability, control cell lines as a group (mean AUC, Control.avg); assay type: cell-based
[5] = system: six MCC cell lines and four control cell lines; assay: qHTS cell viability, all 10 cell lines screened; assay type: cell-based
[6] = MIPE library, 11-point DRC, sheet S2E
[7] = MIPE library, 11-point DRC, control cell line, sheet S2E
[8] = MIPE library, mean AUC of six MCC cell lines, sheet S2E
[9] = MIPE library, Control AUC minus VP-MCC AUC (therapeutic window), sheet S2E
[10] = MIPE library, mean AUC of VP-MCC cell lines, sheet S2E
[11] = MIPE library, Control AUC minus VN-MCC AUC (therapeutic window), sheet S2E
[12] = MIPE library, mean AUC of VN-MCC cell lines, sheet S2E
[13] = MIPE library, mean AUC of control cell lines, sheet S2E
[14] = MIPE library, Control AUC minus MCC AUC (therapeutic window), sheet S2E
[15] = NPC library, qHTS dose-response AUC, MCC13
[16] = NPC library, qHTS dose-response AUC, MCC26
[17] = NPC library, qHTS dose-response AUC, UISO
[18] = NPC library, qHTS dose-response AUC, WAGA
[19] = NPC library, qHTS dose-response AUC, MKL1
[20] = NPC library, qHTS dose-response AUC, MKL2
[21] = NPC library, qHTS dose-response AUC, HACAT control
[22] = NPC library, qHTS dose-response AUC, HEK293T control
[23] = NPC library, qHTS dose-response AUC, NIH3T3 control
[24] = NPC library, qHTS dose-response AUC, CRL7250 control
[25] = NPC library, mean AUC of six MCC cell lines
[26] = NPC library, mean AUC of VP-MCC cell lines
[27] = NPC library, therapeutic window: Control avg AUC minus VP-MCC avg AUC
[28] = NPC library, mean AUC of VN-MCC cell lines
[29] = NPC library, therapeutic window: Control avg AUC minus VN-MCC avg AUC
[30] = NPC library, mean AUC of control cell lines
[31] = NPC library, therapeutic window: Control avg AUC minus MCC avg AUC

Row | SMILES | MCC13_AUC (MCC13 cells (VN-MCC); [6]) | MCC26_AUC (MCC26 cells (VN-MCC); [6]) | UISO_AUC (UISO cells (VN-MCC); [6]) | MCC13_AUC (MCC13 cells (VN-MCC); [15]) | MCC26_AUC (MCC26 cells (VN-MCC); [16]) | UISO_AUC (UISO cells (VN-MCC); [17]) | WAGA_AUC (WAGA cells (VP-MCC); [18]) | MKL1_AUC (MKL-1 cells (VP-MCC); [19]) | MKL2_AUC (MKL-2 cells (VP-MCC); [20]) | HACAT_AUC (HACAT cells; [21]) | HEK293T_AUC (HEK293T cells; [22]) | NIH3T3_AUC (NIH-3T3 cells; [23]) | CRL7250_AUC (CRL-7250 cells; [24]) | MCC_Avg_AUC [1, 25] | VP-MCC_Avg_AUC [2, 26] | Control-VP-MCC [2, 27] | VN-MCC_Avg_AUC [3, 28] | Control-VN-MCC [3, 29] | Control_Avg_AUC [4, 30] | Control-MCC [5, 31] | also measured
1 | COCC1(CO)C(=O)C2CCN1CC2 (stereo not drawn) [APR-246] | 460.845 | 464.929 | 425.775 | – | – | – | – | – | – | – | – | – | – | – | – | – | – | – | – | – | WAGA_AUC (WAGA cells (VP-MCC); [6]): 329.393; MKL1_AUC (MKL-1 cells (VP-MCC); [6]): 344.8; MKL2_AUC (MKL-2 cells (VP-MCC); [6]): 331.652; HACAT_AUC (HACAT cells; [7]): 475.968; HEK293T_AUC (HEK293T cells; [7]): 390.353; NIH3T3_AUC (NIH-3T3 cells; [7]): 403.185; CRL7250_AUC (CRL-7250 cells; [7]): 448.778; MCC_Avg_AUC [1, 8]: 392.899; Control-VP-MCC [2, 9]: 94.289; VP-MCC_Avg_AUC [2, 10]: 335.282; Control-VN-MCC [3, 11]: -20.9457; VN-MCC_Avg_AUC [3, 12]: 450.517; Control_Avg_AUC [4, 13]: 429.571; Control-MCC [5, 14]: 36.6717
2 | Cc1ccsc1C(=CCCN1CCC[C@@H](C(=O)O)C1)c1sccc1C [Tiagabine hydrochloride] | – | – | – | 504.961 | 535.626 | 537.732 | 356.213 | 342.483 | 263.998 | 471.067 | 447.539 | 484.889 | 426.76 | 423.502 | 320.898 | 136.666 | 526.106 | -68.5423 | 457.564 | 34.0617 | –
3 | CCOC(=O)[C@H](CCc1ccccc1)N[C@@H](C)C(=O)N1CCC[C@H]1C(=O)O [Enalapril] | – | – | – | 506.069 | 507.531 | 518.678 | 302.495 | 312.443 | 179.263 | 446.912 | 487.46 | 481.677 | 492.563 | 387.746 | 264.734 | 212.42 | 510.759 | -33.606 | 477.153 | 89.4069 | –
4 | CNCc1ccccc1.Cl [N-Methylbenzylamine hydrochloride] | – | – | – | 438.819 | 480.435 | 548.944 | 372.649 | 390.814 | 343.012 | 476.463 | 408.972 | 497.435 | 502.537 | 429.112 | 368.825 | 102.527 | 489.399 | -18.0472 | 471.352 | 42.2399 | –
5 | COc1ccc2c3c1O[C@H]1[C@@H](O)C=C[C@H]4[C@@H](C2)N(C)CC[C@@]341 [Codeine hydrochloride] | – | – | – | – | – | – | – | – | – | – | – | – | – | – | – | – | – | – | – | – | MCC13_AUC (MCC13 cells (VN-MCC)): 404.155; MCC26_AUC (MCC26 cells (VN-MCC)): 404.512; UISO_AUC (UISO cells (VN-MCC)): 365.394; WAGA_AUC (WAGA cells (VP-MCC)): 360.01; MKL1_AUC (MKL-1 cells (VP-MCC)): 362.385; MKL2_AUC (MKL-2 cells (VP-MCC)): 316.851; HACAT_AUC (HACAT cells): 474.439; HEK293T_AUC (HEK293T cells): 441.34; NIH3T3_AUC (NIH-3T3 cells): 465.288 and 465.287; CRL7250_AUC (CRL-7250 cells): 458.141; MCC_Avg_AUC [1]: 368.884; Control-VP-MCC [2]: 113.387; VP-MCC_Avg_AUC [2]: 346.415; Control-VN-MCC [3]: 68.4482; VN-MCC_Avg_AUC [3]: 391.354; Control_Avg_AUC [4]: 459.802; Control-MCC [5]: 90.9174
6 | Cc1[nH]c(/C=C2\C(=O)Nc3ccccc32)c(C)c1CCC(=O)O [Orantinib] | 429.293 | 450.485 | 326.059 | – | – | – | – | – | – | – | – | – | – | – | – | – | – | – | – | – | WAGA_AUC (WAGA cells (VP-MCC); [6]): 255.586; MKL1_AUC (MKL-1 cells (VP-MCC); [6]): 273.854; MKL2_AUC (MKL-2 cells (VP-MCC); [6]): 325.675; HACAT_AUC (HACAT cells; [7]): 472.413; HEK293T_AUC (HEK293T cells; [7]): 367.406; NIH3T3_AUC (NIH-3T3 cells; [7]): 371.272; CRL7250_AUC (CRL-7250 cells; [7]): 403.945; MCC_Avg_AUC [1, 8]: 343.492; Control-VP-MCC [2, 9]: 118.721; VP-MCC_Avg_AUC [2, 10]: 285.038; Control-VN-MCC [3, 11]: 1.813; VN-MCC_Avg_AUC [3, 12]: 401.946; Control_Avg_AUC [4, 13]: 403.759; Control-MCC [5, 14]: 60.2668
